# Assay results as given in article PMC11435058, “Synthesis of New Thiazole-Privileged Chalcones as Tubulin Polymerization Inhibitors with Potential Anticancer Activities” (Pharmaceuticals, 2024).
# Experiments:
# Experiment in all cases: NCI-60 anticancer screen (SRB; single dose and five doses)
# MDA-MB-468 = assay type: cell-based, human; settings: for activity at 10 µM: 48 h, MDA-MB-468, dose of 10 μM, read-out: Growth Percentage
# How it was run: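 NCI panel of about 60 human tumor cell lines treated with compound at a single concentration (10μM) for 48 h. Growth measured by SRB protein staining and expressed as percent growth of treated versus untreated control cells.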
# RPMI-8226 = settings: Homo sapiens; for activity at 10 µM: RPMI-8226, 48 h, read-out: Growth Percentage
# SR = settings: Homo sapiens
# EKVX = settings: Homo sapiens; for activity at 10 µM: 48 h, read-out: Growth Percentage
# HOP-62 = settings: Homo sapiens; for activity at 10 µM: HOP-62, 48 h, read-out: Growth Percentage
# HOP-92 = settings: Homo sapiens; for activity at 10 µM: HOP-92, 48 h, read-out: Growth Percentage
# NCI-H322M = settings: Homo sapiens
# NCI-H460 = settings: Homo sapiens; for activity at 10 µM: NCI-H460, 48 h, read-out: Growth Percentage
# SW-620 = settings: Homo sapiens; for activity at 10 µM: SW-620, 48 h, read-out: Growth Percentage
# SF-268 = settings: Homo sapiens; for activity at 10 µM: SF-268, 48 h, read-out: Growth Percentage
# SF-295 = settings: Homo sapiens; for activity at 10 µM: SF-295, 48 h, read-out: Growth Percentage
# SF-539 = settings: Homo sapiens; for activity at 10 µM: SF-539, 48 h, read-out: Growth Percentage
# SNB-75 = test system: SNB-75
# M14 = settings: Homo sapiens; for activity at 10 µM: M14, 48 h, read-out: Growth Percentage
# SK-MEL-28 = settings: Homo sapiens; for activity at 10 µM: SK-MEL-28, 48 h, read-out: Growth Percentage
# UACC-62 = settings: Homo sapiens; for activity at 10 µM: UACC-62, 48 h, read-out: Growth Percentage
# A498 = settings: Homo sapiens; for activity at 10 µM: A498, 48 h, read-out: Growth Percentage, A498, dose of 10 μM
# ACHN = settings: Homo sapiens; for activity at 10 µM: 48 h, read-out: Growth Percentage
# CAKI-1 = settings: Homo sapiens; for activity at 10 µM: CAKI-1, 48 h, read-out: Growth Percentage
# SN12C = settings: Homo sapiens; for activity at 10 µM: 48 h, read-out: Growth Percentage
# PC-3 = settings: Homo sapiens; for activity at 10 µM: PC-3, 48 h, read-out: Growth Percentage
# DU-145 = settings: Homo sapiens; for activity at 10 µM: DU-145, 48 h, read-out: Growth Percentage
# MDA-MB-231/ATCC = settings: Homo sapiens; for activity at 10 µM: MDA-MB-231, 48 h, read-out: Growth Percentage
# HS 578T = settings: Homo sapiens; for activity at 10 µM: 48 h, read-out: Growth Percentage
# BT-549 = settings: Homo sapiens; for activity at 10 µM: BT-549, 48 h, read-out: Growth Percentage
# [1] = 48 h, read-out: Growth Percentage
smiles,measurement,setting,value
"COc1ccc(/C=C/C(=O)c2sc(=S)[nH]c2C)cc1OC [2o, (E)-3-(3,4-Dimethoxyphenyl)-1-(4-Methyl-2-Thioxo-2,3-Dihydrothiazol-5-yl)Prop-2-En-1-One]",activity at 10 µM,MDA-MB-468; Homo sapiens,-0.42%
same,activity at 10 µM,RPMI-8226,18.6%
same,activity at 10 µM,SR; [1],32.5%
same,activity at 10 µM,EKVX,54.2%
same,activity at 10 µM,HOP-62,34.1%
same,activity at 10 µM,HOP-92,83.7%
same,activity at 10 µM,NCI-H322M; [1],63.4%
same,activity at 10 µM,NCI-H460,40%
same,activity at 10 µM,SW-620,34.9%
same,activity at 10 µM,SF-268,67.2%
same,activity at 10 µM,SF-295,66.5%
same,activity at 10 µM,SF-539,29.8%
same,activity at 10 µM,"SNB-75; Homo sapiens, SNB-75, 48 h, read-out: Growth Percentage",58.1%
same,activity at 10 µM,M14,82.2%
same,activity at 10 µM,SK-MEL-28,83.2%
same,activity at 10 µM,UACC-62,63.9%
same,activity at 10 µM,A498,126%
same,activity at 10 µM,ACHN,64.9%
same,activity at 10 µM,CAKI-1,42%
same,activity at 10 µM,SN12C,45.4%
same,activity at 10 µM,PC-3,68.9%
same,activity at 10 µM,DU-145,48.1%
same,activity at 10 µM,MDA-MB-231/ATCC,58.4%
same,activity at 10 µM,HS 578T,84.7%
same,activity at 10 µM,BT-549,18.9%
"COc1cc(/C=C/C(=O)c2sc(=S)[nH]c2C)cc(OC)c1OC [2p, (E)-1-(4-Methyl-2-Thioxo-2,3-Dihydrothiazol-5-yl)-3-(3,4,5-Trimethoxyphenyl)Prop-2-En-1-One]",activity at 10 µM,MDA-MB-468; Homo sapiens,3.79%
same,IC50,"MDA-MB-468; Homo sapiens, MDA-MB-468, MDA-MB-468, Breast Cancer, five dose",5.75 µM
same,GI50,"MDA-MB-468; Homo sapiens, MDA-MB-468, Breast Cancer, five dose",1.55 µM
same,CC50,"MDA-MB-468; Homo sapiens, MDA-MB-468, Breast Cancer, five dose, read-out: LC50 (the source's name)",17.8 µM
same,TGI,"MDA-MB-468; MDA-MB-468, Breast Cancer, five dose",4.47 µM
same,GI50,RPMI-8226; RPMI-8226,2.19 µM
same,IC50,RPMI-8226; RPMI-8226,4.47 µM
same,activity at 10 µM,RPMI-8226,5.31%
same,CC50,"RPMI-8226; RPMI-8226, read-out: LC50",> 100 µM
same,IC (TGI),"RPMI-8226; RPMI-8226, read-out: TGI",9.12 µM
same,GI50,SR,2.34 µM
same,IC50,SR,3.8 µM
same,CC50,SR; read-out: LC50,> 100 µM
same,IC (TGI),SR; read-out: TGI,16.2 µM
same,GI50,EKVX,4.07 µM
same,IC50,EKVX,11 µM
same,activity at 10 µM,EKVX,23.4%
same,CC50,EKVX; read-out: LC50,> 100 µM
same,IC (TGI),EKVX; read-out: TGI,22.9 µM
same,GI50,HOP-62; HOP-62,3.16 µM
same,IC50,HOP-62; HOP-62,5.37 µM
same,activity at 10 µM,HOP-62,4.61%
same,CC50,"HOP-62; HOP-62, read-out: LC50",> 100 µM
same,IC (TGI),"HOP-62; HOP-62, read-out: TGI",16.2 µM
same,GI50,HOP-92; HOP-92,2.95 µM
same,IC50,HOP-92; HOP-92,44.7 µM
same,activity at 10 µM,HOP-92,16.4%
same,CC50,"HOP-92; HOP-92, read-out: LC50",> 100 µM
same,IC (TGI),"HOP-92; HOP-92, read-out: TGI",19.9 µM
same,GI50,NCI-H322M,4.57 µM
same,IC50,NCI-H322M,14.1 µM
same,CC50,NCI-H322M; read-out: LC50,51.3 µM
same,IC (TGI),NCI-H322M; read-out: TGI,18.6 µM
same,GI50,NCI-H460; NCI-H460,2.14 µM
same,IC50,NCI-H460; NCI-H460,3.31 µM
same,activity at 10 µM,NCI-H460,-1.34%
same,CC50,"NCI-H460; NCI-H460, read-out: LC50",44.7 µM
same,IC (TGI),"NCI-H460; NCI-H460, read-out: TGI",5.62 µM
same,GI50,SW-620; SW-620,2.57 µM
same,IC50,SW-620; SW-620,3.72 µM
same,activity at 10 µM,SW-620,6.92%
same,CC50,"SW-620; SW-620, read-out: LC50",46.8 µM
same,IC (TGI),"SW-620; SW-620, read-out: TGI",9.77 µM
same,GI50,SF-268; SF-268,2.63 µM
same,IC50,SF-268; SF-268,6.46 µM
same,activity at 10 µM,SF-268,18.5%
same,CC50,"SF-268; SF-268, read-out: LC50",55 µM
same,IC (TGI),"SF-268; SF-268, read-out: TGI",11.2 µM
same,GI50,SF-295; SF-295,5.5 µM
same,IC50,SF-295; SF-295,14.5 µM
same,activity at 10 µM,SF-295,42.3%
same,CC50,"SF-295; SF-295, read-out: LC50",66.1 µM
same,IC (TGI),"SF-295; SF-295, read-out: TGI",21.4 µM
same,GI50,SF-539; SF-539,2.19 µM
same,IC50,SF-539; SF-539,4.47 µM
same,activity at 10 µM,SF-539,-13.9%
same,IC (TGI),"SF-539; SF-539, read-out: TGI",5.5 µM
same,GI50,"SNB-75; Homo sapiens, SNB-75",2.19 µM
same,IC50,"SNB-75; Homo sapiens, SNB-75",7.59 µM
same,CC50,"SNB-75; Homo sapiens, SNB-75, read-out: LC50",28.8 µM
same,TGI,"SNB-75; five-dose, CNS Cancer SNB-75",6.17 µM
same,GI50,M14; M14,3.24 µM
same,IC50,M14; M14,5.13 µM
same,activity at 10 µM,M14,15.4%
same,IC (TGI),"M14; M14, read-out: TGI",13.2 µM
same,GI50,SK-MEL-28; SK-MEL-28,4.07 µM
same,IC50,SK-MEL-28; SK-MEL-28,9.12 µM
same,activity at 10 µM,SK-MEL-28,24.2%
same,CC50,"SK-MEL-28; SK-MEL-28, read-out: LC50",57.5 µM
same,IC (TGI),"SK-MEL-28; SK-MEL-28, read-out: TGI",17.4 µM
same,GI50,UACC-62; UACC-62,2.82 µM
same,IC50,UACC-62; UACC-62,5.37 µM
same,activity at 10 µM,UACC-62,-3.11%
same,IC (TGI),"UACC-62; UACC-62, read-out: TGI",12.3 µM
same,GI50,A498; A498,11.5 µM
same,IC50,A498; A498,43.6 µM
same,activity at 10 µM,A498,96.5%
same,CC50,"A498; A498, read-out: LC50",> 100 µM
same,IC (TGI),"A498; A498, read-out: TGI",34.7 µM
same,GI50,ACHN,3.89 µM
same,IC50,ACHN,6.46 µM
same,activity at 10 µM,ACHN,19.6%
same,CC50,ACHN; read-out: LC50,55 µM
same,IC (TGI),ACHN; read-out: TGI,16.6 µM
same,GI50,CAKI-1; CAKI-1,2.57 µM
same,IC50,CAKI-1; CAKI-1,4.68 µM
same,activity at 10 µM,CAKI-1,28.2%
same,CC50,"CAKI-1; CAKI-1, read-out: LC50",45.7 µM
same,IC (TGI),"CAKI-1; CAKI-1, read-out: TGI",13.2 µM
same,GI50,SN12C,2.29 µM
same,IC50,SN12C,3.89 µM
same,activity at 10 µM,SN12C,7.3%
same,CC50,SN12C; read-out: LC50,46.8 µM
same,IC (TGI),SN12C; read-out: TGI,9.55 µM
same,GI50,PC-3; PC-3,5.01 µM
same,IC50,PC-3; PC-3,8.91 µM
same,activity at 10 µM,PC-3,35.7%
same,CC50,"PC-3; PC-3, read-out: LC50",> 100 µM
same,IC (TGI),"PC-3; PC-3, read-out: TGI",41.7 µM
same,GI50,DU-145; DU-145,3.24 µM
same,IC50,DU-145; DU-145,5.75 µM
same,activity at 10 µM,DU-145,12.9%
same,CC50,"DU-145; DU-145, read-out: LC50",69.2 µM
same,IC (TGI),"DU-145; DU-145, read-out: TGI",15.5 µM
same,GI50,MDA-MB-231/ATCC; MDA-MB-231,3.24 µM
same,IC50,MDA-MB-231/ATCC; MDA-MB-231,10 µM
same,activity at 10 µM,MDA-MB-231/ATCC,2.51%
same,CC50,"MDA-MB-231/ATCC; MDA-MB-231, read-out: LC50",> 100 µM
same,IC (TGI),"MDA-MB-231/ATCC; MDA-MB-231, read-out: TGI",13.2 µM
same,GI50,HS 578T,2.88 µM
same,IC50,HS 578T,> 100 µM
same,activity at 10 µM,HS 578T,3.94%
same,CC50,HS 578T; read-out: LC50,> 100 µM
same,IC (TGI),HS 578T; read-out: TGI,39.8 µM
same,GI50,BT-549; BT-549,2.95 µM
same,IC50,BT-549; BT-549,11.8 µM
same,activity at 10 µM,BT-549,-11.8%
same,IC (TGI),"BT-549; BT-549, read-out: TGI",10.7 µM
